US20230287003A1, “BCL6 INHIBITORS” (Cancer Research Technology Limited, priority 2018, published 2023)

How the values were obtained:
[1] = target: human BCL6 BTB domain (Trx-6×His-BCL6) / BCOR-AF633 peptide (Homo sapiens (Human), UniProt P41182); experiment: HTRF assay; format: binding; settings: 1 nM Trx-6×His-BCL6, 300 nM BCOR-AF633 peptide, 2 hours incubation
[2] = target: BCL6-NCOR2(SMRT) corepressor protein-protein interaction (Homo sapiens (Human), UniProt P41182); experiment: NanoBRET cell assay; format: cell-based; settings: for IC50: read-out: NanoBRET cell avg pIC50 (converted)
From the text: At 20 hr post-transfection, cells were collected, washed with PBS, and exchanged into media containing phenol red-free OptiMEM+4% FBS (Life Technology).

[3] = target: endogenous BCL6 protein in SUDHL-4 cells (Homo sapiens (Human), UniProt P41182); experiment: Immunofluorescence-based BCL6 degradation assay (SUDHL4); format: cell-based; settings: 2 hours with compound, DC50 = concentration at which 50% of endogenous BCL6 protein is degraded
Method: DC50 values (compound concentration at which 50% of endogenous BCL6 protein is degraded) were determined in SUDHL-4 cells (American Type Culture Collection) in an immunofluorescence-based assay using an InCell2200 high content imaging system (GE Healthcare). Briefly, 40 μL of lymphoma suspension cells cultured in RPMI 1640-10% FBS (Sigma-Aldrich or PAN Biotech UK Ltd) were platted on fibronectin (Sigma catalogue F1141)-coated 384 well Cell Carrier Ultra plate (Perkin Elmer catalogue 6057300) at 1.2 104 cells/well. After 20 hours cell culture at 37° C./CO2 incubator, compounds were dispensed in the cell culture plate using ECHO550 acoustic dispenser (Labcyte, Inc.), as 8 point-concentration response (ranging from 5 nM to 10 μM) in 0.67% final DMSO concentration. Cells were incubated with compound for 2 hours at 37° C./CO2 incubator followed by fixation in 4.5% formaldehyde (37% formaldehyde solution, Sigma catalogue F8775) at room temperature for 15 min. After fixing, cells were washed in 1×TBS (Tris Buffer Saline) using a Power Washer 384 (Tecan Group Ltd). Blocking and cell permeabilisation were performed by incubating the fixed cells for 1 hour at room temperature in 1×TBS, 5% BSA, 1% Triton X100, followed by three washes on PW384 plate washer. Primary and secondary antibodies were prepared in 1×TBS, 1% BSA, 0.2% Triton X100. BCL6 expression was detected by incubating the cells for 1 h 30 with BCL6 rabbit polyclonal antibody (Sigma Catalogue HPA004899) at 1:250, 0.8 μg/ml, followed by 1 hour in chicken anti-Rabbit Alexa 488 conjugated antibody (Life Technology) at 1:500. After incubation in each antibody, cells were washes four times in 1×TBS-0.05% tween on PW384 plate washer. Cells were finally incubated for 60 min with nuclear staining RedDot2 dye (Biotium) at 0.5× the stock concentration in 1×TBS. BCL6 expression in the absence or presence of compound was detected on InCell2200 with 20× objective and quantified on InCell Analyser 3.7.2 workstation (GE Healthcare). The % response at each concentration was calculated by normalising BCL6 expression in the presence of compound to the appropriate high (DMSO) and low (DMSO with 7 μM of a control compound (5-((5-chloro-2-((3R,5S)-4,4-difluoro-3,5-dimethylpiperidin-1-yl)pyrimidin-4-yl)amino)-3-(3-hydroxy-3-methylbutyl)-1-methyl-1,3-dihydro-2H-benzo[d]imidazol-2-one)) controls.

| HTRF avg pIC50 (1 nM) [1] | IC50 [2] [µM] | SUDHL4 avg pDC50 [3] | Compound | NanoBRET cell avg pIC50 ([2]; HEK293T cells co-transfected with BCL6-nanoLuc and NCOR2-HaloTag, 6 hr incubation) |
| --- | --- | --- | --- | --- |
| 6.07 | 6.17 | 6.63 | C[C@@H]1CN(c2ncc(Cl)c(Nc3ccc4c(c3)c3c(c(=O)n4C)OCC[C@H](C)N3)n2)C[C@H](C)C1(F)F [Example 5f, (S)-10-((5-chloro-2-((3S,5R)-4,4-difluoro-3,5-dimethylpiperidin-1-yl)pyrimidin-4-yl)amino)-2,7-dimethyl-1,2,3,4-tetrahydro-[1,4]oxazepino[2,3-c]quinolin-6(7H)-one] | – |
| 6.70 | – | 6.79 | C[C@@H]1CN(c2ncc(Cl)c(Nc3ccc4c(c3)c3c(c(=O)n4C)OCC[C@H](C4CC4)N3)n2)C[C@H](C)C1(F)F [Example 5i, (R)-10-((5-chloro-2-((3S,5R)-4,4-difluoro-3,5-dimethylpiperidin-1-yl)pyrimidin-4-yl)amino)-2-cyclopropyl-7-methyl-1,2,3,4-tetrahydro-[1,4]oxazepino[2,3-c]quinolin-6(7H)-one] | – |
| 6.93 | – | 6.84 | Cn1c(=O)c2c(c3cc(Nc4nc(N5CCC(F)(F)CC5)ncc4Cl)ccc31)N[C@@H](C1CC1)CCO2 [Example 5m, (R)-10-((5-chloro-2-(4,4-difluoropiperidin-1-yl)pyrimidin-4-yl)amino)-2-cyclopropyl-7-methyl-1,2,3,4-tetrahydro-[1,4]oxazepino[2,3-c]quinolin-6(7H)-one] | – |
| 6.24 | – | 6.87 | C[C@@H]1CN(c2ncc(Cl)c(Nc3ccc4[nH]c(=O)c5c(c4c3)N[C@@H](C3CC3)CCO5)n2)C[C@H](C)C1(F)F [Example 5p, (R)-10-((5-chloro-2-((3S,5R)-4,4-difluoro-3,5-dimethylpiperidin-1-yl)pyrimidin-4-yl)amino)-2-cyclopropyl-1,2,3,4-tetrahydro-[1,4]oxazepino[2,3-c]quinolin-6(7H)-one] | – |
| 6.61 | – | 6.54 | C[C@@H]1CN(c2ncc(Cl)c(Nc3cnc4c(c3)c3c(c(=O)n4C)OCC[C@H](C4CC4)N3)n2)C[C@H](C)C1(F)F [Example 5t, (R)-10-((5-chloro-2-((3S,5R)-4,4-difluoro-3,5-dimethylpiperidin-1-yl)pyrimidin-4-yl)amino)-2-cyclopropyl-7-methyl-1,2,3,4-tetrahydro-[1,4]oxazepino[2,3-c][1,8]naphthyridin-6(7H)-one] | – |

The next lines start with the compound.

| Compound | HTRF avg pIC50 (1 nM) [1] | IC50 [2] [µM] | SUDHL4 avg pDC50 [3] | NanoBRET cell avg pIC50 ([2]; HEK293T cells co-transfected with BCL6-nanoLuc and NCOR2-HaloTag, 6 hr incubation) |
| --- | --- | --- | --- | --- |
| C[C@@H]1C[C@H](C)CN(c2ncc(Cl)c(Nc3ccc4c(c3)c3c(c(=O)n4C)OCC[C@H](C)N3)n2)C1 [Example 5e, (S)-10-((5-chloro-2-((3R,5S)-3,5-dimethylpiperidin-1-yl)pyrimidin-4-yl)amino)-2,7-dimethyl-1,2,3,4-tetrahydro-[1,4]oxazepino[2,3-c]quinolin-6(7H)-one] | 6.18 | 5.25 | 6.22 | – |
| C[C@@H]1CN(c2ncc(Cl)c(Nc3ccc4c(c3)c3c(c(=O)n4C)C(=O)OC[C@H](C)N3)n2)C[C@H](C)C1(F)F [Example 8c, (S)-10-((5-chloro-2-((3S,5R)-4,4-difluoro-3,5-dimethylpiperidin-1-yl)pyrimidin-4-yl)amino)-2,7-dimethyl-2,3-dihydro-[1,4]oxazepino[6,5-c]quinoline-5,6(1H,7H)-dione] | 6.80 | 17.8 | 6.78 | – |
| C[C@@H]1C[C@H](C)CN(c2ncc(Cl)c(Nc3ccc4c(c3)c3c(c(=O)n4C)C(=O)OC[C@H](C)N3)n2)C1 [Example 8g, (S)-10-((5-chloro-2-((3R,5S)-3,5-dimethylpiperidin-1-yl)pyrimidin-4-yl)amino)-2,7-dimethyl-2,3-dihydro-[1,4]oxazepino[6,5-c]quinoline-5,6(1H,7H)-dione] | 6.55 | 13.5 | 6.50 | – |
| Cn1c(=O)c2c(c3cc(Nc4nc(N5C6CCC5CS(=O)(=O)C6)ncc4Cl)ccc31)N[C@@H](C1CC1)C(F)(F)CO2 [Example 12w, (S)-10-((5-chloro-2-(3,3-dioxido-3-thia-8-azabicyclo[3.2.1]octan-8-yl)pyrimidin-4-yl)amino)-2-cyclopropyl-3,3-difluoro-7-methyl-1,2,3,4-tetrahydro-[1,4]oxazepino[2,3-c]quinolin-6(7H)-one] | 8.73 | 0.011 | – | – |
| Cn1c(=O)c2c(c3cc(Nc4nc(N5CC(F)(F)C[C@@H]5CO)ncc4Cl)ccc31)N[C@@H](C1CC1)C(F)(F)CO2 [Example 12x, (S)-10-((5-chloro-2-((R)-4,4-difluoro-2-(hydroxymethyl)pyrrolidin-1-yl)pyrimidin-4-yl)amino)-2-cyclopropyl-3,3-difluoro-7-methyl-1,2,3,4-tetrahydro-[1,4]oxazepino[2,3-c]quinolin-6(7H)-one] | 8.20 | 0.145 | – | – |
| Cn1c(=O)c2c(c3cc(Nc4nc(N5C6COCC5CC(O)C6)ncc4Cl)ccc31)N[C@@H](C1CC1)CCS2 (stereo partly drawn) [Example 15a, (R)-10-((5-chloro-2-((1R,5S,7S)-7-hydroxy-3-oxa-9-azabicyclo[3.3.1]-nonan-9-yl)pyrimidin-4-yl)amino)-2-cyclopropyl-7-methyl-1,2,3,4-tetrahydro-[1,4]thiazepino[2,3-c]quinolin-6(7H)-one] | 8.12 | 0.0288 | – | – |
| (R)-10-((5-chloro-2-((3R,5S)-3-hydroxy-5- methylpiperidin-1-yl)pyrimidin-4-yl)amino)-2-cyclopropyl-7- methyl-1,2,3,4-tetrahydro-[1,4]oxazepino[2,3-c]quinolin-6(7H)-one or (R)-10-((5-chloro-2-((3S,5R)-3-hydroxy-5-methylpiperidin-1- yl)pyrimidin-4-yl)amino)-2-cyclopropyl-7-methyl-1,2,3,4-tetrahydro- [1,4]oxazepino[2,3-c]quinolin-6(7H)-one: formic acid (1:2) [Example 12c] | 8.01 | – | 7.83 | – |
| (R)-10-((5-chloro-2-((3S,5R)-3-hydroxy-5- methylpiperidin-1-yl)pyrimidin-4-yl)amino)-2-cyclopropyl-7- methyl-1,2,3,4-tetrahydro-[1,4]oxazepino[2,3-c]quinolin-6(7H)-one or (R)-10-((5-chloro-2-((3R,5S)-3-hydroxy-5-methylpiperidin-1- yl)pyrimidin-4-yl)amino)-2-cyclopropyl-7-methyl-1,2,3,4-tetrahydro- [1,4]oxazepino[2,3-c]quinolin-6(7H)-one: formic acid (1:1) [Example 12d] | 7.74 | – | – | 7.06 |
